Laboratory results reported in ChEMBL document CHEMBL5653631, “A Potent and Selective ULK1 Inhibitor Suppresses Autophagy and Sensitizes Cancer Cells to Nutrient Stress” (iScience, 2018).
Each block holds one compound with its values, some of them ahead of it.

What was measured:
[1] = target: Tyrosine-protein kinase ABL2 (Homo sapiens) (UniProt P42684); experiment: Inhibition of human recombinant ABL2 at 500 nM related to control ULK1
[2] = target: Transient receptor potential cation channel subfamily M member 7 (Homo sapiens) (UniProt Q96QT4); experiment: Inhibition of human recombinant ChaK1 at 500 nM in presence of ATP by radiometric assay relative to control
Transient receptor potential cation channel subfamily M member 7 (Homo sapiens), sequence (Q96QT4 whole entry): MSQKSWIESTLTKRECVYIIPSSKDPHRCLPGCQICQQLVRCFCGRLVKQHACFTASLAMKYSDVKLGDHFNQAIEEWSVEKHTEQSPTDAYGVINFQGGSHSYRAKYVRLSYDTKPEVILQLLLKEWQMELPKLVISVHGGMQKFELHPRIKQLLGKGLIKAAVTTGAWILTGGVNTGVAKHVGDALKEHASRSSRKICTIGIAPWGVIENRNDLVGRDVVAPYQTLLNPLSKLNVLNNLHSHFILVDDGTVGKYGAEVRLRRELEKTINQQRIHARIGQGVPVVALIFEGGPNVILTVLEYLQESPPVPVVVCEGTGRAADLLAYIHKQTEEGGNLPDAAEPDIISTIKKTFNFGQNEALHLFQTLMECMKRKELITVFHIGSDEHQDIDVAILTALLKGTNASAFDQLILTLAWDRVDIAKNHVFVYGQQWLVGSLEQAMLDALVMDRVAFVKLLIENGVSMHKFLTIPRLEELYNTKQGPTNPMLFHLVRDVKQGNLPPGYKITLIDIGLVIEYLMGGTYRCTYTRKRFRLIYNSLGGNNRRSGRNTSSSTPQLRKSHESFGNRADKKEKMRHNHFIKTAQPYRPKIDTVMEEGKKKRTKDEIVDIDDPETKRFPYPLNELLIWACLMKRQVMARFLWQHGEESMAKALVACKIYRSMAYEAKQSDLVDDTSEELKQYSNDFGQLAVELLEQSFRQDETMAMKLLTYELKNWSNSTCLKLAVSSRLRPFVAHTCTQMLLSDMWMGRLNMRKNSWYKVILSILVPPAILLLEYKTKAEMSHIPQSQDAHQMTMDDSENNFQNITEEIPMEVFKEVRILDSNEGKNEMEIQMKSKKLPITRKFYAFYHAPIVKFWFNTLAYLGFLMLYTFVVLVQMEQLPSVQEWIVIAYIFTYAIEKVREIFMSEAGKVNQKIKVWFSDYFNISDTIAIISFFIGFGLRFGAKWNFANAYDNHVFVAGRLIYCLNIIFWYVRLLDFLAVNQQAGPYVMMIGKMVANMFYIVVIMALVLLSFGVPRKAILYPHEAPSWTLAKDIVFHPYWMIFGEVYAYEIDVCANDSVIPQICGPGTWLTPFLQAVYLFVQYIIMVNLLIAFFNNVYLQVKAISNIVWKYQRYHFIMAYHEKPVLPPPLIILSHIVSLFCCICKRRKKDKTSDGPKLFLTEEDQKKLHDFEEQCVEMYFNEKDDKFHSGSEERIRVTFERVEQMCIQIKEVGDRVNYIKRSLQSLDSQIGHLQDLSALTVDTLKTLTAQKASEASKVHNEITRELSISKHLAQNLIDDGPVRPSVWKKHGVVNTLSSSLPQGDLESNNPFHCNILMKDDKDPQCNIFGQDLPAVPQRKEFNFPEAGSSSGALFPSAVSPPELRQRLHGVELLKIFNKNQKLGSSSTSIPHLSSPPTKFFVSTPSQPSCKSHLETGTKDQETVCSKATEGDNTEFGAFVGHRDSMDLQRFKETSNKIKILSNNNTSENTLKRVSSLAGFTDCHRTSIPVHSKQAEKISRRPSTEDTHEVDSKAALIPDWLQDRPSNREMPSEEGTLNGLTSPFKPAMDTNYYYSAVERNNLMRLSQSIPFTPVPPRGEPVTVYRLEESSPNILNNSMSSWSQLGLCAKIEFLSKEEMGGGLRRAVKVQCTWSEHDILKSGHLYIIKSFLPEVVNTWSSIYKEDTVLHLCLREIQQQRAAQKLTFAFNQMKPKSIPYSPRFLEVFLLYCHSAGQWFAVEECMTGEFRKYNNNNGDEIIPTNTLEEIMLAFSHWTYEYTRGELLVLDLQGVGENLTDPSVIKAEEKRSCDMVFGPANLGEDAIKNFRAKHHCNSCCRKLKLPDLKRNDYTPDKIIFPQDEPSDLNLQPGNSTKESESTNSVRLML

[3] = target: Rhodopsin kinase GRK7 (Homo sapiens) (UniProt Q8WTQ7); experiment: Inhibition of human recombinant GPRK7 at 500 nM related to control ULK1
Rhodopsin kinase GRK7 (Homo sapiens), sequence (Q8WTQ7 whole entry, looked up): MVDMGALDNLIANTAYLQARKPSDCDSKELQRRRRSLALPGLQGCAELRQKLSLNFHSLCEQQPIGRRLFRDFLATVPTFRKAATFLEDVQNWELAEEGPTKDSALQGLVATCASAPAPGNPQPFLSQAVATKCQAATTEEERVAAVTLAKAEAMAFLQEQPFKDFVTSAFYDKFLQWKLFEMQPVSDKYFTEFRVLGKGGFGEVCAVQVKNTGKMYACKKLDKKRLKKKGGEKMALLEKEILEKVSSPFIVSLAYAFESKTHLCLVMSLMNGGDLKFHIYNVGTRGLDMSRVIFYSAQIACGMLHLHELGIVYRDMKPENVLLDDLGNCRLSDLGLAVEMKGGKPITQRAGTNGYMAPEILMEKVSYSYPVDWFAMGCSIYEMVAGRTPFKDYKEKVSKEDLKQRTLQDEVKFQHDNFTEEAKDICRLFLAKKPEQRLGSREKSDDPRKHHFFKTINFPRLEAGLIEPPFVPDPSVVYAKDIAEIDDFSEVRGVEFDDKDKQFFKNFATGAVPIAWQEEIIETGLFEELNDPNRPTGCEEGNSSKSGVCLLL

[4] = target: T1, Serine/threonine-protein kinase TBK1 (Homo sapiens) (UniProt Q9UHD2); experiment: Inhibition of human recombinant TBK1 at 500 nM related to control ULK1
T1 sequence (whole entry): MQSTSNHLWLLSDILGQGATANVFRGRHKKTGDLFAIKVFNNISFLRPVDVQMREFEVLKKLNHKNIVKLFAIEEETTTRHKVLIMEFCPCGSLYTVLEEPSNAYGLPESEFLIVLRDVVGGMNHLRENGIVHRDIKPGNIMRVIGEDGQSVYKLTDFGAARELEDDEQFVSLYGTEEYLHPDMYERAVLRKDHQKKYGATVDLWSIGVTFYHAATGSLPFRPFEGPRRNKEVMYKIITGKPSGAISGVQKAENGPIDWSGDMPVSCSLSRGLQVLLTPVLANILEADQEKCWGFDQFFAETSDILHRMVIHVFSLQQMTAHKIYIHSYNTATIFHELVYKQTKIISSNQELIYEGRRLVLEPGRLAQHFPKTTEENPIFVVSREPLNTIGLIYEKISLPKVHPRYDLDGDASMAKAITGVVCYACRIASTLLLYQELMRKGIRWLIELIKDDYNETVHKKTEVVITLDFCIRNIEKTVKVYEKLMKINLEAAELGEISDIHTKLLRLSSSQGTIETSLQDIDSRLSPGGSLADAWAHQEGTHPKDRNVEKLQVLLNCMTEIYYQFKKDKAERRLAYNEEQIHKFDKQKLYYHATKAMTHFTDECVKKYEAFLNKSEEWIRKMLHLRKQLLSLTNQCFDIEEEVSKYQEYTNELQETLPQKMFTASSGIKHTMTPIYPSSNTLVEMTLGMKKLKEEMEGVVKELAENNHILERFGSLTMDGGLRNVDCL

[5] = target: Cyclin-dependent kinase 5 (Homo sapiens) (UniProt Q00535); experiment: Inhibition of human recombinant CDK5 at 500 nM related to control ULK1
Cyclin-dependent kinase 5 (Homo sapiens), sequence (Q00535 whole entry, looked up): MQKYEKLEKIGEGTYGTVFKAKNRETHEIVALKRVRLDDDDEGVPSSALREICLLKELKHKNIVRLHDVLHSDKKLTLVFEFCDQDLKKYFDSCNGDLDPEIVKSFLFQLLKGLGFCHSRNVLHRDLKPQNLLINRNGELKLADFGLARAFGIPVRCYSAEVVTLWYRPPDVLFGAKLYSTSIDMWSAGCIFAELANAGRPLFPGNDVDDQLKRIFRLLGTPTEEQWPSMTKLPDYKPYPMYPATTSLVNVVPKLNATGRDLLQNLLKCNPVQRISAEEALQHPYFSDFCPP

[6] = target: Serine/threonine-protein kinase Chk2 (Homo sapiens) (UniProt O96017); experiment: Inhibition of human recombinant CHK2 at 500 nM in presence of ATP by radiometric assay relative to control
[7] = target: T2, Ephrin type-A receptor 1 (Homo sapiens) (UniProt P21709); experiment: Inhibition of human recombinant EphA1 at 40 nM in presence of ATP by radiometric assay relative to control
T2 sequence (whole entry): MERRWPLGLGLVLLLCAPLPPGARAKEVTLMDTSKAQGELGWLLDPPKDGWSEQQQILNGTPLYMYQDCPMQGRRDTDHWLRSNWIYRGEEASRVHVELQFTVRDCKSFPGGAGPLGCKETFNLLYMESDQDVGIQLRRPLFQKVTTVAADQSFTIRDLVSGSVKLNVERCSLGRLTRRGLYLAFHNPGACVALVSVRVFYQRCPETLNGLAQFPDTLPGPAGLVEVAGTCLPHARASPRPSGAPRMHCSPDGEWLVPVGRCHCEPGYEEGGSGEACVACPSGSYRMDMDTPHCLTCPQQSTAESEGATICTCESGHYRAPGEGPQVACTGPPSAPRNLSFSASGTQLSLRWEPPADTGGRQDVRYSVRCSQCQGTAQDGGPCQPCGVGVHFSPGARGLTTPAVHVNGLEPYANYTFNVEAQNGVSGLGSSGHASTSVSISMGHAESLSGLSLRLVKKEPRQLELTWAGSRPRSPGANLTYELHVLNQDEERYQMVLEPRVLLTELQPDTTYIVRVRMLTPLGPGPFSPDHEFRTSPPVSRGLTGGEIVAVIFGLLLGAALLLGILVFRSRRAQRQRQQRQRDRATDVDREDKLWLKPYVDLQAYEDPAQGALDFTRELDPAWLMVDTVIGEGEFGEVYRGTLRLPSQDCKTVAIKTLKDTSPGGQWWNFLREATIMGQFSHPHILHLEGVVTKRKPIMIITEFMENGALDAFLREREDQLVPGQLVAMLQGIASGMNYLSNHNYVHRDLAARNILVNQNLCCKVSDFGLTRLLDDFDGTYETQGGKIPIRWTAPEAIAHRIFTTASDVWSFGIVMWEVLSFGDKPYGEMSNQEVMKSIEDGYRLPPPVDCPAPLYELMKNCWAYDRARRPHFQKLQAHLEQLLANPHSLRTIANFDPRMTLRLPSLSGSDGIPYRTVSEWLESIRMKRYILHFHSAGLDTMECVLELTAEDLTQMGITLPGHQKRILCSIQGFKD

[8] = target: Cyclin-dependent kinase 4 (Homo sapiens) (UniProt P11802); experiment: Inhibition of human recombinant CDK4 at 40 nM in presence of ATP by radiometric assay relative to control
[9] = target: Myosin light chain kinase 2, skeletal/cardiac muscle (Homo sapiens) (UniProt Q9H1R3); experiment: Inhibition of human recombinant skMLCK at 40 nM in presence of ATP by radiometric assay relative to control
[10] = target: Protein kinase C iota type (Homo sapiens) (UniProt P41743); experiment: Inhibition of human recombinant PKCi at 15 nM related to control ULK1
[11] = target: Proto-oncogene tyrosine-protein kinase receptor Ret (Homo sapiens) (UniProt P07949); experiment: Inhibition of human recombinant RET at 15 nM related to control ULK1
Proto-oncogene tyrosine-protein kinase receptor Ret (Homo sapiens), sequence (P07949 whole entry): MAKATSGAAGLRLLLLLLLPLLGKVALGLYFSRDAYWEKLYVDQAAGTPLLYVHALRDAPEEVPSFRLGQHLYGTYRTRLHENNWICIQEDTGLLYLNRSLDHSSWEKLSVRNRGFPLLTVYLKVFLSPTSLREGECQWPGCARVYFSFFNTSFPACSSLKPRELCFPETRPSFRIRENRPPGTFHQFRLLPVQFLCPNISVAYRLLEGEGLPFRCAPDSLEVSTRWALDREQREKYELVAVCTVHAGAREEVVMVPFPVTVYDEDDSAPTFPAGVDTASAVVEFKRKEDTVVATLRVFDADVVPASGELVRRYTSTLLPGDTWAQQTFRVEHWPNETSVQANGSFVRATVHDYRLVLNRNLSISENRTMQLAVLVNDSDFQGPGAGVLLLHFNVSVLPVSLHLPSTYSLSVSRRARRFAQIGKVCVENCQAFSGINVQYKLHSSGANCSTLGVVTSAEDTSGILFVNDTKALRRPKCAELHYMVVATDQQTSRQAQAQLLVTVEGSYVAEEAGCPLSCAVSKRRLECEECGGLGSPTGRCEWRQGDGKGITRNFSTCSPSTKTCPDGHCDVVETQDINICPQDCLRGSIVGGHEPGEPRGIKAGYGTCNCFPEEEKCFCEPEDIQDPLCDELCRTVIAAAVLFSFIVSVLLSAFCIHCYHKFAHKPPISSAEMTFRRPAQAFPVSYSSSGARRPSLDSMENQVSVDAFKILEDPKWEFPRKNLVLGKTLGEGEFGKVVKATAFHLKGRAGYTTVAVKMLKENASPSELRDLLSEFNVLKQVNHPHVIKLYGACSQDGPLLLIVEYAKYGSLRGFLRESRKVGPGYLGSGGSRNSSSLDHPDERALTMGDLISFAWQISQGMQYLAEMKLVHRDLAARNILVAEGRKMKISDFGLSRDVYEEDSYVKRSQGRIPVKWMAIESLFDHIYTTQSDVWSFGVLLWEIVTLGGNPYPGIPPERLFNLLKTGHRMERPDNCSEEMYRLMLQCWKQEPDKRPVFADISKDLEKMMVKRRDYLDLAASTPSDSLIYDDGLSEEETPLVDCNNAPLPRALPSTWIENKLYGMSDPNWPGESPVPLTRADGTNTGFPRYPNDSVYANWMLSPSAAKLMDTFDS

[12] = target: Serine/threonine-protein kinase PAK 4 (Homo sapiens) (UniProt O96013); experiment: Inhibition of human recombinant PAK4 at 15 nM in presence of ATP by radiometric assay relative to control

Tyrosine-protein kinase ABL2 (Homo sapiens), sequence (P42684 whole entry): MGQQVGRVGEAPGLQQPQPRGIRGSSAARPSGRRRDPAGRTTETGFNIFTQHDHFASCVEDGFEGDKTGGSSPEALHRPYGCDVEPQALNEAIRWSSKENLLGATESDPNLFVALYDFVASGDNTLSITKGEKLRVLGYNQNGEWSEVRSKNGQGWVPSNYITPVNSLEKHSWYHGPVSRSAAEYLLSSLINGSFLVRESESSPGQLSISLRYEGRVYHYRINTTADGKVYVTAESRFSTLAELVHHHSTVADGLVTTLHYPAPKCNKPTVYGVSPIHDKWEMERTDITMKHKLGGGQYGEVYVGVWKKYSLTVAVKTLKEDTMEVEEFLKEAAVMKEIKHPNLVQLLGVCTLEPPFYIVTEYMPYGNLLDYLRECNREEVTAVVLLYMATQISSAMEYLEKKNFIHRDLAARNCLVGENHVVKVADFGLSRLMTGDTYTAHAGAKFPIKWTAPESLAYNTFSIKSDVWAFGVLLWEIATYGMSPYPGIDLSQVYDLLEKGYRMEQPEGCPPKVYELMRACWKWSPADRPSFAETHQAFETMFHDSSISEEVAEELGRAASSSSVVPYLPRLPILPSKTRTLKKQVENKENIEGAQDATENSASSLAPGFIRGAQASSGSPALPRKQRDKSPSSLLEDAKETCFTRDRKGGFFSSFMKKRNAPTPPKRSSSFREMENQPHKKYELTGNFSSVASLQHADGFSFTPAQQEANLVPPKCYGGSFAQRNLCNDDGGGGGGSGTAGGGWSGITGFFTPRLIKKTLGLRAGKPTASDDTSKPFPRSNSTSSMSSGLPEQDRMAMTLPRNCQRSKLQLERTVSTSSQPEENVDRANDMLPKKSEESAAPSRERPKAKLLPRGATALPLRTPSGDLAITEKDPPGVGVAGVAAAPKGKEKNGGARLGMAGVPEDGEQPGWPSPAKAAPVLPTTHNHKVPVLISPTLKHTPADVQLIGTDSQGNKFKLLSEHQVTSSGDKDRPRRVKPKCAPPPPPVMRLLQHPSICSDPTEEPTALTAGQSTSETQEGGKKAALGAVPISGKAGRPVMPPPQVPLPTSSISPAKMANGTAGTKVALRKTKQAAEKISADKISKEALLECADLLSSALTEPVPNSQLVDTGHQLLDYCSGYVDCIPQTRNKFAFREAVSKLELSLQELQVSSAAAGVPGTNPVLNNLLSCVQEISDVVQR

fold change (FC) [1]: 0.28
inhibition [2]: 0%
fold change (FC) [3]: 0.14
fold change (FC) [4]: 0
fold change (FC) [5]: 0.77
inhibition [6]: 0%
SMILES: CNC(=O)c1ccccc1Oc1nc(Nc2cc(OC)c(OC)c(OC)c2)ncc1Br

inhibition [7]: 0%
inhibition [8]: 0%
inhibition [9]: 0%
SMILES: O=C(N[C@@H](C1CC1)C(F)(F)F)c1cc(-c2cnn3cc(-c4ccc(F)cc4)cnc23)cs1

fold change (FC) [10]: 0.05
fold change (FC) [11]: 0.16
inhibition [12]: 0%
SMILES: CC(C)[C@H](NC(=O)c1cc(-c2cnn3cc(-c4ccc(OCCN5CCCCC5)cc4)cnc23)cs1)C(F)(F)F
